Data from PMC8200818, “SPECT/CT Imaging, Biodistribution and Radiation Dosimetry of a ^177Lu-DOTA-Integrin αvβ6 Cystine Knot Peptide in a Pancreatic Cancer Xenograft Model” (Frontiers in Oncology, 2021).

Experiments:
[1] = biological target: T1, integrin αvβ6 (Capan-2 cells) (Homo sapiens, UniProt P06756+P18564); assay: Competition binding assay, Capan-2
T1 construct: endogenous in cells; host or cells: Capan-2 (whole adherent cells)
Method: (§1) The reaction volume was made up to 30 µl with water. The reaction was carried out for 10 minutes at 80°C.
(§2) For competitive radioligand binding assay, approximately 50,000 cells (BxPC-3 or Capan-2) per well were seeded in a 96 well plate incubated overnight at 37°C. […] After 2 hours of incubation, cells were washed for 2-3 times with ice-cold washing buffer (50 mM Tris-HCl, pH 7.4, 125 mM NaCl, 0.05% BSA) and lysed with 1 N NaOH (80 µl/well). The lysed cells were transferred to vials and measured in a gamma counter (Wallac 1470 Wizard, Perkin Elmer, Waltham, MA, USA). Obtained cpm values were plotted with GraphPad Prism and the data fitted using nonlinear regression (one site - fit Ki, one site - fit logIC50).
(§3) All statistical analyses were performed using GraphPad Prism 5.04. IC50 values were determined by nonlinear sigmoidal curve fitting with variable slope setting. All presented data are based on independent experiments. Numerical data for this study have been deposited in an open data repository for public access: http://doi.org/10.5281/zenodo.4362503.

integrin αvβ6 = details: cited from earlier work
From the text: Cystine knot peptides (knottins) represent small peptides of approximately 4 kDa with three threaded disulfide bonds that form a rigid topological knot constraining the peptide’s conformational flexibility. Such a structural motif is known as a cystine knot ([21], [22]). One of the advantages of knottins is the high variability of backbone residues that may be used to modulate tumor and kidney uptake ([23]). Knottins are well suited for in vivo tumor-targeting applications as their disulfide-bonded core confers outstanding thermal stability and resistance against proteolytic degradation; moreo ...

[2] = biological target: T2, integrin αvβ6 (BxPC-3 cells) (Homo sapiens, UniProt P06756+P18564); assay: Competition binding assay, BxPC-3; details: BxPC-3
T2 construct: endogenous in cells; host or cells: BxPC-3 (whole adherent cells)
T2 sequence (P06756 31-889 limits assumed): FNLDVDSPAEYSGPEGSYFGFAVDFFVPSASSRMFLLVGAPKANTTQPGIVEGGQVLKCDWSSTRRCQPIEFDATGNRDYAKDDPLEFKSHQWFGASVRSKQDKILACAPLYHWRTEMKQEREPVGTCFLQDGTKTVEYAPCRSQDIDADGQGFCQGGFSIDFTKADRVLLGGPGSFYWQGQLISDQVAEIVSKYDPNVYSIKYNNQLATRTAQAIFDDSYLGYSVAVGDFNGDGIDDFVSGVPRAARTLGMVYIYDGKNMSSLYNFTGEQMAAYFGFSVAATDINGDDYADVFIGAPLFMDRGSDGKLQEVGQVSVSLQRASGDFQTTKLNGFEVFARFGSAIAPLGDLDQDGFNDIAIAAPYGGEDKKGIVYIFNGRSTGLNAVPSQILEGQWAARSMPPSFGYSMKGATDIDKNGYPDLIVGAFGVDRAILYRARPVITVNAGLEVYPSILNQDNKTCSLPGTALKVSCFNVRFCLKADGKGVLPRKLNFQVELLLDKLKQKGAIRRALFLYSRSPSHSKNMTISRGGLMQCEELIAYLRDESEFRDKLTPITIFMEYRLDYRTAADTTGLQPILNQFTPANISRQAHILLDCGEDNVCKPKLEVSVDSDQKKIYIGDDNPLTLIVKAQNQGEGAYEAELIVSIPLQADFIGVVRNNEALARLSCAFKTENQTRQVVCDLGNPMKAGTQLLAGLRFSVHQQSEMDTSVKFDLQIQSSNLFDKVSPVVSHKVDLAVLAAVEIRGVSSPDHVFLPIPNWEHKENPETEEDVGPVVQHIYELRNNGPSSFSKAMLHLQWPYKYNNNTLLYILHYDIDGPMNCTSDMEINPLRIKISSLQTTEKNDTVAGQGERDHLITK
T2 sequence (P06756 891-1048 partner limits assumed): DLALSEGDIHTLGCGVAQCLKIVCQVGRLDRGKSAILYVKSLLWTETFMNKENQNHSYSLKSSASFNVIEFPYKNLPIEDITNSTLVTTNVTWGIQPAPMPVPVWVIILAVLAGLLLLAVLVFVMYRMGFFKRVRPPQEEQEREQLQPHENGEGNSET
T2 sequence (P18564 22-788): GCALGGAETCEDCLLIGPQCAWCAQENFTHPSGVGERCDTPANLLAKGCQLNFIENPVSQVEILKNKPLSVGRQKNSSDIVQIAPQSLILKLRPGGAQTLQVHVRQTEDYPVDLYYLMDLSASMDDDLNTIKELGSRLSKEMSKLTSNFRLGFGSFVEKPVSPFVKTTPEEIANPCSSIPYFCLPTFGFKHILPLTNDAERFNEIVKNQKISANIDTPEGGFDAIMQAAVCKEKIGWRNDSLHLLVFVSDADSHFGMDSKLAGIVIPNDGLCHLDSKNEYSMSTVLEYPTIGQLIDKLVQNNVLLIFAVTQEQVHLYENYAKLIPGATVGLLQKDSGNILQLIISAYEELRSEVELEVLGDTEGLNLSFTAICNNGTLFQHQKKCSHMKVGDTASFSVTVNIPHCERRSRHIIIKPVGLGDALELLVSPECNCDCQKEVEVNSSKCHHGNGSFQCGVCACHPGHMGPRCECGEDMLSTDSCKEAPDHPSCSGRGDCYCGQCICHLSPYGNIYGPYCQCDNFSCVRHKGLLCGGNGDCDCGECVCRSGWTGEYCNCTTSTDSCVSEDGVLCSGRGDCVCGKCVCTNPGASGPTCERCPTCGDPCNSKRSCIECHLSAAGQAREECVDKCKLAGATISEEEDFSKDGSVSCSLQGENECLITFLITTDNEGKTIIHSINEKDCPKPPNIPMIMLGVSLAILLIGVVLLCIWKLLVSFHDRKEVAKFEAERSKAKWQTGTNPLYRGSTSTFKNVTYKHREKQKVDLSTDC
Method: as §1, §2, §3

[3] = cited from earlier work
Capan-2 xenografts = details: day 1 versus day 8 after injection; single dose; listed as DOTA-integrin αvβ6 knottin
[4] = displacement of ^125I-DOTA-integrin αvβ6 knottin (100,000 cpm), 2 h, pH 7.4, mean ± S.E.M. (3 ≤ n ≤ 4), read-out: Inhibitory constant (Ki)

T1 sequence (P06756 31-889 limits assumed): as the sequence (P06756 31-889 limits assumed) above
T1 sequence (P06756 891-1048 partner limits assumed): as the sequence (P06756 891-1048 partner limits assumed) above
T1 sequence (P18564 22-788): as the sequence (P18564 22-788) above

Row | SMILES | Effect of DOTA / ^natLu chelation on affinity [1] | Binding affinity for integrin αvβ6 (integrin αvβ6) | Effect of DOTA / ^natLu chelation on affinity [2] | Stability and affinity to the receptor in vivo [3] | Tumor uptake (previous) ([3]; in vivo) | Ki [1, 4] | Ki [2, 4] | Tissue structure of xenografts (H&E) (Capan-2 xenografts)
1 | CC[C@H](C)[C@@H]1NC(=O)[C@@H](NC(=O)CN)CSSC[C@@H]2NC(=O)[C@H](C)NC(=O)CNC(=O)[C@@H]3CCCN3C(=O)[C@@H]3CSSC[C@@H](C(=O)NCC(=O)O)NC(=O)[C@H](Cc4ccc(O)cc4)NC(=O)CNC(=O)[C@H](CC(N)=O)NC(=O)CNC(=O)[C@H](CCCNC(=N)N)NC(=O)[C@H](CSSC[C@H](NC(=O)[C@H](CCCNC(=N)N)NC(=O)[C@H](Cc4ccccc4)NC(=O)[C@H](CC(C)C)NC(=O)[C@H](CC(C)C)NC(=O)[C@H]([C@@H](C)O)NC(=O)CNC(=O)[C@H](CC(C)C)NC(=O)[C@H](CC(=O)O)NC(=O)[C@H]([C@@H](C)O)NC(=O)[C@H](CCCNC(=N)N)NC(=O)CNC(=O)[C@H](CC(N)=O)NC(=O)[C@H](CC(C)C)NC1=O)C(=O)N[C@@H](CCCNC(=N)N)C(=O)N[C@@H](CCCNC(=N)N)C(=O)N[C@@H](CC(=O)O)C(=O)N[C@@H](CO)C(=O)N[C@@H](CC(=O)O)C(=O)N3)NC(=O)[C@H]([C@@H](C)CC)NC2=O [knottin] | did not change upon either the addition of a DOTA chelator moiety or incorporation of natural non-radioactive lutetium | low single-digit nanomolar binding affinity | did not change upon either the addition of a DOTA chelator moiety or incorporation of natural non-radioactive lutetium | not compromised in vivo | favorable tumor uptake |  |  | 
2 | CC[C@H](C)[C@@H]1NC(=O)[C@@H](NC(=O)CNC(=O)CN2CCN(CC(=O)O)CCN(CC(=O)O)CCN(CC(=O)O)CC2)CSSC[C@@H]2NC(=O)[C@H](C)NC(=O)CNC(=O)[C@@H]3CCCN3C(=O)[C@@H]3CSSC[C@@H](C(=O)NCC(=O)O)NC(=O)[C@H](Cc4ccc(O)cc4)NC(=O)CNC(=O)[C@H](CC(N)=O)NC(=O)CNC(=O)[C@H](CCCNC(=N)N)NC(=O)[C@H](CSSC[C@H](NC(=O)[C@H](CCCNC(=N)N)NC(=O)[C@H](Cc4ccccc4)NC(=O)[C@H](CC(C)C)NC(=O)[C@H](CC(C)C)NC(=O)[C@H]([C@@H](C)O)NC(=O)CNC(=O)[C@H](CC(C)C)NC(=O)[C@H](CC(=O)O)NC(=O)[C@H]([C@@H](C)O)NC(=O)[C@H](CCCNC(=N)N)NC(=O)CNC(=O)[C@H](CC(N)=O)NC(=O)[C@H](CC(C)C)NC1=O)C(=O)N[C@@H](CCCNC(=N)N)C(=O)N[C@@H](CCCNC(=N)N)C(=O)N[C@@H](CC(=O)O)C(=O)N[C@@H](CO)C(=O)N[C@@H](CC(=O)O)C(=O)N3)NC(=O)[C@H]([C@@H](C)CC)NC2=O [^natLu DOTA knottin, metal not drawn] | did not compromise the high affinity of the tracer |  | did not compromise the high affinity of the tracer |  |  |  |  | 
3 | CC[C@H](C)[C@@H]1NC(=O)[C@@H](NC(=O)CNC(=O)CN2CCN(CC(=O)O)CCN(CC(=O)O)CCN(CC(=O)O)CC2)CSSC[C@@H]2NC(=O)[C@H](C)NC(=O)CNC(=O)[C@@H]3CCCN3C(=O)[C@@H]3CSSC[C@@H](C(=O)NCC(=O)O)NC(=O)[C@H](Cc4ccc(O)cc4)NC(=O)CNC(=O)[C@H](CC(N)=O)NC(=O)CNC(=O)[C@H](CCCNC(=N)N)NC(=O)[C@H](CSSC[C@H](NC(=O)[C@H](CCCNC(=N)N)NC(=O)[C@H](Cc4ccccc4)NC(=O)[C@H](CC(C)C)NC(=O)[C@H](CC(C)C)NC(=O)[C@H]([C@@H](C)O)NC(=O)CNC(=O)[C@H](CC(C)C)NC(=O)[C@H](CC(=O)O)NC(=O)[C@H]([C@@H](C)O)NC(=O)[C@H](CCCNC(=N)N)NC(=O)CNC(=O)[C@H](CC(N)=O)NC(=O)[C@H](CC(C)C)NC1=O)C(=O)N[C@@H](CCCNC(=N)N)C(=O)N[C@@H](CCCNC(=N)N)C(=O)N[C@@H](CC(=O)O)C(=O)N[C@@H](CO)C(=O)N[C@@H](CC(=O)O)C(=O)N3)NC(=O)[C@H]([C@@H](C)CC)NC2=O [DOTA knottin] |  |  |  |  |  | 9.46 ± 5.21 nM | 1.69 ± 1.3 nM | no significant impact was observed
